Here are results for eight compounds from PMC3082897 (2010).

Where two headings read alike, the source gives them in different places.

The target of series [1] is T1, UMPKmt (uridine monophosphate kinase, Rv2883c) (Mycobacterium tuberculosis, UniProt P9WHK5). In words: coupled spectrophotometric kinase assay. It counts as biochemical.
Target sequence in this assay (P9WHK5 whole entry, looked up): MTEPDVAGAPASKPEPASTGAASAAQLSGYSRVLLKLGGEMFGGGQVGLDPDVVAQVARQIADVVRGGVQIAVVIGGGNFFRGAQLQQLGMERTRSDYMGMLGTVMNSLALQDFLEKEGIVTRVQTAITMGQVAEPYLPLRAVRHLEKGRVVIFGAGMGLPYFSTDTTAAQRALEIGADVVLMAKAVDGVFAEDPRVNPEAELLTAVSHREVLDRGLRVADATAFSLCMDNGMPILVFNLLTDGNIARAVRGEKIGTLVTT
The target in series [2] is T1, UMPKmt (uridine monophosphate kinase, Rv2883c). As to the kind of experiment: X-ray crystal structure. The format is biochemical.
Target sequence in this assay (P9WHK5 whole entry): as the sequence (P9WHK5 whole entry, looked up) above
The target is the same in series [3]. In words: coupled spectrophotometric kinase assay. The format is biochemical. This is another data set of the same source.
Target sequence in this assay (P9WHK5 whole entry, looked up): as above
For series [4] the target is unchanged. In words: coupled spectrophotometric kinase assay. The format is biochemical. The source holds these as a separate data set.
Target sequence in this assay (P9WHK5 whole entry, looked up): as above
The test system of series [5] is O=c1ccn([C@@H]2O[C@H](COP(=O)(O)O)[C@@H](O)[C@H]2O)c(=O)[nH]1. In words: purified protein.

`Nc1nc2c(ncn2[C@H]2C[C@H](O)[C@@H](COP(=O)(O)OP(=O)(O)OP(=O)(O)O)O2)c(=O)[nH]1` [dGTP]: the “coupled spectrophotometric kinase assay (activation, similar to GTP)” value in series [1] is “dGTP, Mant-GTP and 6-methylthio GTP exhibited similar properties to GTP in terms of both affinity and extent of activation”.
For `Nc1nc2c(ncn2[C@@H]2O[C@H](COP(=O)(O)OP(=O)(O)OP(=O)(O)O)[C@@H](O)[C@H]2O)c(=O)[nH]1` [GTP], in series [2], the EC50 worked out at 100 µM.
For `O=c1ccn([C@@H]2O[C@H](COP(=O)(O)OP(=O)(O)OP(=O)(O)O)[C@@H](O)[C@H]2O)c(=O)[nH]1` [UTP], the IC50 in series [3] came out at 100 µM.
`O=c1[nH]c(=O)n([C@@H]2O[C@H](COP(=O)(O)OP(=O)(O)OP(=O)(O)O)[C@@H](O)[C@H]2O)cc1Br` [5Br-UTP] yielded an IC50 in series [4] of 100 µM.
The same measure, in the same setting: the figure for `O=c1[nH]c(=O)n([C@@H]2O[C@H](COP(=O)(O)OP(=O)(O)OP(=O)(O)O)[C@@H](O)[C@H]2O)cc1I` [5I-UTP] is 20 µM.
In the case of “UMPKmt (uridine monophosphate kinase, Rv2883c) (Mycobacterium tuberculosis H37Rv)”, the Km in series [5] came to 19.6 ± 1.8 µM.
As to `Cc1cn([C@H]2C[C@H](O)[C@@H](COP(=O)(O)OP(=O)(O)OP(=O)(O)O)O2)c(=O)[nH]c1=O` [dTTP], inhibition in series [4] was half-maximal at 400 µM (IC50).
Same read-out and setting: the figure for `O=c1ccn([C@H]2C[C@H](O)[C@@H](COP(=O)(O)OP(=O)(O)OP(=O)(O)O)O2)c(=O)[nH]1` [dUTP] is 240 µM.

The EC50 is the concentration needed to bring the measured effect to its halfway point. Broadly, the IC50 is the concentration needed to halve the response being measured. A higher IC50 goes with a need for much substance. In general, Km refers to the substrate concentration at which the rate is half of its maximum.
